Test results as given in patent publication US10113155B2, “Steviol glycosyltransferase and gene encoding same” (SUNTORY HOLDINGS LIMITED, priority 2012, dated 2018).

Key:
[1] = biological target: T1, UGT73E1 homologous protein 1 (Stevia rebaudiana, UniProt Q6VAA9); test: Enzyme activity of UGT73E1 homologous protein 1: glucosylation of sugar acceptor substrates, LC-MS analysis; type: biochemical; conditions: for products found in the reaction solution with UGT73E1 homologous protein 1: 2 mM UDP-glucose, 0.1 mM sugar acceptor substrate, potassium phosphate buffer pH 7.0, 30° C., 1 hour
T1 construct: designed to carry the open reading frame of the UGT73E1 homologous protein 1 gene in frame with a His tag; made in house; host or cells: E. coli BL21(DE3)
T1 sequence (Q6VAA9 whole entry H50D/D106H/L131W/P152K/L157P/I160M/V199L/A305T/L422S): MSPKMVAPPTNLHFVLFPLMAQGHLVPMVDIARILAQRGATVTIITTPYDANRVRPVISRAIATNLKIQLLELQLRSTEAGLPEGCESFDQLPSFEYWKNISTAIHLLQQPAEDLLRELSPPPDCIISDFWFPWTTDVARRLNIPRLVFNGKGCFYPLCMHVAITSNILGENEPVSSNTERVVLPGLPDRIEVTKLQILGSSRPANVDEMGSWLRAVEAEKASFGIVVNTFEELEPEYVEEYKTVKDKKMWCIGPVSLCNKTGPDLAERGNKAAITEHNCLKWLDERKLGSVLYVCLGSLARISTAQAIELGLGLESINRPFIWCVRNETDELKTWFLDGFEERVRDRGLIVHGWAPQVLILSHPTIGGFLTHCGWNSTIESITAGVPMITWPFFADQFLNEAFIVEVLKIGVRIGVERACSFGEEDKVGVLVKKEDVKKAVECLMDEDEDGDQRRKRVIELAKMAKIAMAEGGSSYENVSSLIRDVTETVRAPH
Protocol: Standard enzyme reaction conditions are as follows. A reaction solution (2 mM UDP-glucose, 0.1 mM sugar acceptor substrate (steviol), 100 mM potassium phosphate buffer (pH 7.0), 25 μl purified UGT73E1 homologous protein 1 enzyme solution) was prepared in a volume of 50 μl with distilled water and reacted at 30° C. for 1 hour. The enzyme reaction solution (5 μl) was analyzed by LC-MS under the following conditions.
Column: Waters Sunfire C18 3.5 um (2.0 mm I.D.×20 mm)
Mobile phase: A: MilliQ Water (+0.05% formic acid), B: MeCN
Gradient: linear concentration gradient of B from 15% to 55% over 20 minutes
Flow rate: 0.2 ml per minute

[2] = reported in previous studies (Non-patent Document 2); cited from earlier work

Molecule	products found in the reaction solution with UGT73E1 homologous protein 1 [1]	stevioside peak in the reaction solution with UGT73E1 homologous protein 1 ([1]; substrate reacted with UGT73E1 homologous protein 1)	glycosylation activity on steviol glycosides [2]
C=C1C[C@@]23CC[C@H]4[C@@](C)(CCC[C@@]4(C)C(=O)O)[C@@H]2CC[C@]1(O)C3 (single isomer, unassigned) [steviol]	four types of products were newly found		
C=C1C[C@@]23CC[C@H]4[C@@](C)(CCC[C@@]4(C)C(=O)O[C@@H]4O[C@H](CO)[C@@H](O)[C@H](O)[C@H]4O)[C@@H]2CC[C@]1(O[C@@H]1O[C@H](CO)[C@@H](O)[C@H](O)[C@H]1O)C3 [rubusoside]	Compound Z which appears to be a triglucoside of steviol was newly generated	no significant stevioside peak can be found	
C=C1C[C@@]23CC[C@H]4[C@@](C)(CCC[C@@]4(C)C(=O)O)[C@@H]2CC[C@]1(O[C@@H]1O[C@H](CO)[C@@H](O)[C@H](O)[C@H]1O[C@@H]1O[C@H](CO)[C@@H](O)[C@H](O)[C@H]1O)C3 [steviolbioside]	a product which appears to be stevioside (peak F) was also detected		
C=C1C[C@@]23CC[C@H]4[C@@](C)(CCC[C@@]4(C)C(=O)O)[C@@H]2CC[C@]1(O[C@@H]1O[C@H](CO)[C@@H](O)[C@H](O)[C@H]1O)C3 [steviolmonoside]	two peaks (peak E and peak F) were newly obtained		
UGT73E1: reported stevia glycosyltransferase, 98% identical to UGT73E1 homologous protein 1 (protein, UniProt Q6VAA9 1-495, looked up) UDP-glycosyltransferase 73E1: MSPKMVAPPTNLHFVLFPLMAQGHLVPMVDIARILAQRGATVTIITTPYHANRVRPVISRAIATNLKIQLLELQLRSTEAGLPEGCESFDQLPSFEYWKNISTAIDLLQQPAEDLLRELSPPPDCIISDFLFPWTTDVARRLNIPRLVFNGPGCFYLLCIHVAITSNILGENEPVSSNTERVVLPGLPDRIEVTKLQIVGSSRPANVDEMGSWLRAVEAEKASFGIVVNTFEELEPEYVEEYKTVKDKKMWCIGPVSLCNKTGPDLAERGNKAAITEHNCLKWLDERKLGSVLYVCLGSLARISAAQAIELGLGLESINRPFIWCVRNETDELKTWFLDGFEERVRDRGLIVHGWAPQVLILSHPTIGGFLTHCGWNSTIESITAGVPMITWPFFADQFLNEAFIVEVLKIGVRIGVERACLFGEEDKVGVLVKKEDVKKAVECLMDEDEDGDQRRKRVIELAKMAKIAMAEGGSSYENVSSLIRDVTETVRAPH			no glycosylation activity on steviol glycosides
